In PubChem BioAssay AID1963834 (Molecular Pharmacology Branch, DTP, NCI, 2024):

System: 873145-292-R-J1-PDC complex spheroid viability
Assay: Anticancer human tumor 873145-292-R-J1-PDC patient-derived renal clear cell carcinoma cell line growth inhibition [POLQ]
Conditions: for IC50: curve of first compound; for viability, T/C: stronger effect = lower value
In short: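 Growth inhibition in 3D: complex spheroids (tumor PDC, HUVEC, MSC) treated with POLQ inhibitor combinations; where Cmax unknown, highest tested concentration 10 microM, except SN-38 at 1 microM.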
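Further: spheroids exposed to compounds for 7 days before viability readout.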
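Wherever viability, T/C is given: luminescence signal used as surrogate for viable cell content; 100% = DMSO vehicle control viability.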

Q: Which results are given for `CC(=O)O[C@H]1C(=O)[C@@]2(C)[C@H]([C@H](OC(=O)c3ccccc3)[C@]3(O)C[C@H](OC(=O)[C@H](O)[C@@H](NC(=O)c4ccccc4)c4ccccc4)C(C)=C1C3(C)C)[C@]1(OC(C)=O)CO[C@@H]1C[C@@H]2O` + Nc1ccc(C#CCN(C(=O)Cc2ncc(C(F)(F)F)cc2C(F)(F)F)c2ccc(F)cc2)nn1?
A: IC50 (second compound 0.0316 µM): > 3000 nM; IC50 (second compound 0.1 µM): > 3000 nM; IC50 (second compound 0.316 µM): > 3000 nM; IC50 (second compound 1 µM): > 3000 nM; IC50 (second compound 3.16 µM): > 3000 nM; IC50 (second compound 10 µM): > 3000 nM; viability, T/C (second compound 0.0316 µM, first compound 0.00949 µM): 89.1%; viability, T/C (second compound 0.0316 µM, first compound 0.03 µM): 85.9%; viability, T/C (second compound 0.0316 µM, first compound 0.0949 µM): 79.5%; viability, T/C (second compound 0.0316 µM, first compound 0.3 µM): 72.9%; viability, T/C (second compound 0.0316 µM, first compound 0.949 µM): 67.6%; viability, T/C (second compound 0.0316 µM, first compound 3 µM): 71.2%; viability, T/C (second compound 0.1 µM, first compound 0.00949 µM): 85.4%; viability, T/C (second compound 0.1 µM, first compound 0.03 µM): 90.2%; viability, T/C (second compound 0.1 µM, first compound 0.0949 µM): 71.8%; viability, T/C (second compound 0.1 µM, first compound 0.3 µM): 68.3%; viability, T/C (second compound 0.1 µM, first compound 0.949 µM): 68.8%; viability, T/C (second compound 0.1 µM, first compound 3 µM): 65%; viability, T/C (second compound 0.316 µM, first compound 0.00949 µM): 90.3%; viability, T/C (second compound 0.316 µM, first compound 0.03 µM): 84.6%; viability, T/C (second compound 0.316 µM, first compound 0.0949 µM): 68.1%; viability, T/C (second compound 0.316 µM, first compound 0.3 µM): 68.8%; viability, T/C (second compound 0.316 µM, first compound 0.949 µM): 66.9%; viability, T/C (second compound 0.316 µM, first compound 3 µM): 62.8%; viability, T/C (second compound 1 µM, first compound 0.00949 µM): 85.2%; viability, T/C (second compound 1 µM, first compound 0.03 µM): 71.5%; viability, T/C (second compound 1 µM, first compound 0.0949 µM): 72.7%; viability, T/C (second compound 1 µM, first compound 0.3 µM): 70.7%; viability, T/C (second compound 1 µM, first compound 0.949 µM): 70.7%; viability, T/C (second compound 1 µM, first compound 3 µM): 68.7%; viability, T/C (second compound 3.16 µM, first compound 0.00949 µM): 87%; viability, T/C (second compound 3.16 µM, first compound 0.03 µM): 73.7%; viability, T/C (second compound 3.16 µM, first compound 0.0949 µM): 72.3%; viability, T/C (second compound 3.16 µM, first compound 0.3 µM): 72.3%; viability, T/C (second compound 3.16 µM, first compound 0.949 µM): 71.8%; viability, T/C (second compound 3.16 µM, first compound 3 µM): 69%; viability, T/C (second compound 10 µM, first compound 0.00949 µM): 81.1%; viability, T/C (second compound 10 µM, first compound 0.03 µM): 75.5%; viability, T/C (second compound 10 µM, first compound 0.0949 µM): 74.8%; viability, T/C (second compound 10 µM, first compound 0.3 µM): 67.1%; viability, T/C (second compound 10 µM, first compound 0.949 µM): 65.7%; viability, T/C (second compound 10 µM, first compound 3 µM): 74%

Q: How did the IC50 (second compound 0.0316 µM) turn out when `CC[C@@]1(O)C(=O)OCc2c1cc1n(c2=O)Cc2cc3c(CN(C)C)c(O)ccc3nc2-1` + Nc1ccc(C#CCN(C(=O)Cc2ncc(C(F)(F)F)cc2C(F)(F)F)c2ccc(F)cc2)nn1 was run?
A: > 100 nM

Q: What about the IC50 (second compound 0.1 µM) of the same molecule?
A: > 100 nM

Q: And the IC50 (second compound 0.316 µM)?
A: > 100 nM

Q: What about the IC50 (second compound 1 µM) of the same molecule?
A: > 100 nM

Q: What about the IC50 (second compound 3.16 µM) of the same molecule?
A: > 100 nM

Q: What about the IC50 (second compound 10 µM) of the same molecule?
A: > 100 nM

Q: And the viability, T/C (second compound 0.0316 µM, first compound 0.000316 µM)?
A: 109%

Q: And the viability, T/C (second compound 0.0316 µM, first compound 0.001 µM)?
A: 116%

Q: What about the viability, T/C (second compound 0.0316 µM, first compound 0.00316 µM) of the same molecule?
A: 96.9%

Q: And the viability, T/C (second compound 0.0316 µM, first compound 0.01 µM)?
A: 92%

Q: And the viability, T/C (second compound 0.0316 µM, first compound 0.0316 µM)?
A: 95.8%

Q: And the viability, T/C (second compound 0.0316 µM, first compound 0.1 µM)?
A: 56.4%

Q: And the viability, T/C (second compound 0.1 µM, first compound 0.000316 µM)?
A: 112%

Q: And the viability, T/C (second compound 0.1 µM, first compound 0.001 µM)?
A: 107%

Q: What about the viability, T/C (second compound 0.1 µM, first compound 0.00316 µM) of the same molecule?
A: 107%

Q: What about the viability, T/C (second compound 0.1 µM, first compound 0.01 µM) of the same molecule?
A: 107%

Q: What about the viability, T/C (second compound 0.1 µM, first compound 0.0316 µM) of the same molecule?
A: 99.3%

Q: And the viability, T/C (second compound 0.1 µM, first compound 0.1 µM)?
A: 52.7%

Q: And the viability, T/C (second compound 0.316 µM, first compound 0.000316 µM)?
A: 104%

Q: What about the viability, T/C (second compound 0.316 µM, first compound 0.001 µM) of the same molecule?
A: 105%

Q: What about the viability, T/C (second compound 0.316 µM, first compound 0.00316 µM) of the same molecule?
A: 92%

Q: What about the viability, T/C (second compound 0.316 µM, first compound 0.01 µM) of the same molecule?
A: 111%

Q: What about the viability, T/C (second compound 0.316 µM, first compound 0.0316 µM) of the same molecule?
A: 95.5%

Q: What about the viability, T/C (second compound 0.316 µM, first compound 0.1 µM) of the same molecule?
A: 53.4%

Q: What about the viability, T/C (second compound 1 µM, first compound 0.000316 µM) of the same molecule?
A: 115%

Q: What about the viability, T/C (second compound 1 µM, first compound 0.001 µM) of the same molecule?
A: 99.2%

Q: And the viability, T/C (second compound 1 µM, first compound 0.00316 µM)?
A: 98.6%

Q: What about the viability, T/C (second compound 1 µM, first compound 0.01 µM) of the same molecule?
A: 91%

Q: And the viability, T/C (second compound 1 µM, first compound 0.0316 µM)?
A: 106%

Q: And the viability, T/C (second compound 1 µM, first compound 0.1 µM)?
A: 59.6%

Q: What about the viability, T/C (second compound 3.16 µM, first compound 0.000316 µM) of the same molecule?
A: 114%

Q: What about the viability, T/C (second compound 3.16 µM, first compound 0.001 µM) of the same molecule?
A: 112%

Q: What about the viability, T/C (second compound 3.16 µM, first compound 0.00316 µM) of the same molecule?
A: 112%

Q: And the viability, T/C (second compound 3.16 µM, first compound 0.01 µM)?
A: 102%

Q: And the viability, T/C (second compound 3.16 µM, first compound 0.0316 µM)?
A: 93.5%

Q: And the viability, T/C (second compound 3.16 µM, first compound 0.1 µM)?
A: 63.9%

Q: What about the viability, T/C (second compound 10 µM, first compound 0.000316 µM) of the same molecule?
A: 109%

Q: What about the viability, T/C (second compound 10 µM, first compound 0.001 µM) of the same molecule?
A: 111%

Q: And the viability, T/C (second compound 10 µM, first compound 0.00316 µM)?
A: 124%

Q: And the viability, T/C (second compound 10 µM, first compound 0.01 µM)?
A: 119%

Q: And the viability, T/C (second compound 10 µM, first compound 0.0316 µM)?
A: 103%

Q: What about the viability, T/C (second compound 10 µM, first compound 0.1 µM) of the same molecule?
A: 63.2%
